Experimental data published in patent US8927280B2, “Compositions and methods for promoting the generation of definitive endoderm” (President and Fellows of Harvard College, priority 2009, dated 2015).
Values joined by “and” are separate entries in the source; they are usually repeats but may differ in a detail not shown here. Equal entries are not always repeated. “Also recorded” adds a separate entry of the source.

How the values were obtained:
[1] = test system: gut tube of E8.75 mouse embryos; test: Injection of compound induced endoderm into gut tube of E8.75 mouse embryos, ex vivo embryo culture; format: in vivo; settings: for incorporation of induced endodermal cells into gut tube (in words): FoxA2, Cldn6 and YFP staining; for embryos in which induced cells integrated into the gut: cells treated 6 days, injected into E8.75 embryos, 24-30 hrs ex vivo culture
Experimental: Mouse E8.5 ICR embryos were dissected in Hanks Balanced Salt Solution and cultured in the DMEM/F12 (Invitrogen) media supplemented with 50% rat serum (Valley Biomedical), penicillin, streptomycin, glutamine at 37° C. for 20-24 hrs. The YFP mouse ES cells were cultured in the presence of hit compounds for 6 days to induce endoderm formation and then cells were dissociated with trypsin and approx. 100 000 cells were injected into gut tube of E8.75 embryos. Following injections, embryos were transferred to rotating bottle culture unit and were then cultured in media (1.5-2 ml per embryo) as above under humidified conditions at 40% O2, 5% CO2, 55% N2, and 37° C. After 30 hrs culture, embryos were fixed in 4% paraformaldehyde in PBS, embedded in tissue-tek and cryosections were stained with antibodies against Cld6, FoxA2 an YFP.
For chemically derived endoderm to be useful, it is important to determine its developmental potential, beyond the expression of endodermal markers. The ultimate goal is to direct the cells to form functional beta cells. To begin to address this possibility and functional potential of derived populations, mouse ES cells ubiquitously expressing enhanced yellow fluorescent protein (EYFP) (Hadjantonakis et al., 2002) were induced to form endoderm with IDE1, IDE2, or DMSO (control). At day 6 of treatment, the inventors dissociated and injected the cells into the gut tube (a derivative of endoderm) of live E8.75 embryos. The lumen of the gut tube can be accessed prior to the completion of embryonic turning and gut tube closure and therefore provides a developmental window for functional assessment of ES-derived endoderm cells. Chemically derived endoderm was injected into the primitive gut tube at the anterior and posterior intestinal portals. At this time the gut tube is still open and anterior intestinal portal is accessible (FIG. 6A). The embryos were cultured ex vivo for 24-30 hrs during which time the lateral walls of the embryonic gut fold ventrally and the gut tube closes, around E9.5. […] Cells induced by IDE1 treatment integrated into the gut, in 8 out of 35 cases, and in 7 out of 29 embryos for IDE2. Conversely, DMSO (control) treated cells never integrate into the developing gut tube (0/10 and 0/11, respectively) and instead remain in the lumen (FIG. 6B).

mouse ES cells = test: Sox17 endoderm induction in mouse ES cell monolayer cultures; format: cell-based; settings: mouse ES cells; for EC50: 144 h, treatment for 6 days, immunofluorescence, titration 50 nM to 5 μM, read-out: EC50 of Sox17 expression; for percentage of cells expressing Sox17 after 12 hrs treatment: analysed at day 6; for day of treatment at which endoderm induction peaks: 14 days time course; for percent of total cells expressing Sox17 at day 6 of treatment: αSox17 immunofluorescence
Experimental: Mouse ES cells were routinely cultured on irradiated CF-1 MEF feeder cells in DMEM (Gibco) media supplemented with 15% Fetal Bovine Serum (HyClone FBS, Invitrogen), 2 mM L-glutamine (L-Glu, Gibco), 1.1 mM 2-mercaptoethanol (Gibco), 1 mM nonessential amino acids (Gibco), 1× penicillin/streptomycin (P/S, Gibco) and 5×10^5 units LIF (Chemicon). Cells were passaged at the ratio of 1:6-1:12 every 2-3 days using 0.25% trypsin. To generate the starting population, mouse ES cells was cultured on MEF feeder cells until they reached 80-90% confluence. Prior to differentiation, ES cells were passaged onto gelatin coated plates for 30 min to remove MEFs. MEF depleted ES cells were seeded at 2500 cells per cm^2 on gelatinized plates. After overnight culture, cells were exposed to 25 ng/ml Wnt3a (R&D Systems)+50 ng/ml recombinant Activin A (R&D Systems) or 500 ng/ml Nodal (R&D Systems) in DMEM (Gibco) supplemented with 1×L-Glu and 0.2% FBS (Gibco) for 1 day, then Activin A or Nodal in the same media and cultured for 4-6 days to induce endoderm differentiation. For the chemical inductions, compounds IDE1 and IDE2 (provided by Stuart L. Schreiber) were added at 5 μM concentration in the differentiation media. For pancreatic progenitors induction, the cells were transferred to 50 ng/ml FGF10 (R&D Systems), 0.75 μM KAAD-cyclopamine (Calbiochem) and 2 μM RA (Sigma) or Indolactam V 330 nM (Axxora) in DMEM supplemented with 1×L-Glu, 1×PS, 1×B27 (Invitrogen) for 4 days. SHB431542 was purchased from Sigma. All stock compounds were made with either DMSO or PBS
Cells were fixed in 4% paraformaldehyde (Sigma) in PBS for 20 min at 4° C. followed by a wash with PBS. Cells were blocked with 10% donkey serum (Jackson Immunoresearch) in PBS/0.1% Triton X and incubated with primary antibodies overnight at 4° C. Secondary antibodies were incubated for 1 h at room temperature. The following antibodies and dilutions were used: goat anti-SOX17, (1:500 R&D systems); rabbit anti-PDX1 (1:200, Chemicon), rabbit anti-FoxA2 (1:500; Upstate), rabbit anti-Dab2 (1:200, Santa Cruz), rabbit anti-SPARC (1:200, Santa Cruz,), mouse anti-AFP (1:100, Sigma), anti-Gata6 (1:50, Santa Cruz Biotech), goat anti-HNF6 (1:200, Santa Cruz Biotech), rabbit anti-RFP/DsRed (1:300, MBL), rabbit anti-GFP (1:200, Molecular Probes). Secondary antibodies were: rhodamine Red-X-conjugated donkey anti-goat antibody, 1:200 (JIRL), Alexa-488-conjugated goat anti-mouse and Alexa-594-conjugated goat anti-rabbit antibodies (1:300, Molecular Probes). Nuclei were visualized by Hoechst 33342 (1:1000, Molecular Probes). Images were taken using an Olympus IX70 Microscope. For quantification images were analyzed for the frequency of SOX17+, FoxA2+ or Pdx1+ cells using Metamorph image analysis software (Molecular Devices) and at least 6 images per well were collected. Data were confirmed in four independent experiments.
Endoderm formation was monitored by Sox17 expression by either flow cytometry detection of Sox17/DsRed or immunofluorescence using anti-Sox17 antibodies. Cells labeled by antibody staining were quantified using Metamorph software ad percentage of total cell number (based on Hoechst 33342 nuclei staining). All conditions were tested in either tri- or quadruplicates.

Smad2 = test: Western blot analysis of Smad2 phosphorylation in ES cell lysates; format: cell-based, mouse; settings: ES cell lysates, after 24 hrs or longer
Experimental: Cells were lysed in 1×RIPA lysis buffer in the presence of protease inhibitor mixture (Roche)/1% phosphatase inhibitor mixture (Roche). Proteins were separated by 10% Tris-Glycine SDS/PAGE (Bio-rad) under denaturing conditions and transferred to a nitrocellulose membrane. After blocking with 5% skim milk in PBS/0.1% Triton X, the membrane was incubated with primary antibodies against phospho-Smad2 (1:1000, Cell Signaling) overnight at 4° C. The membrane was then washed, incubated with anti-mouse/rabbit peroxidase-conjugated affinity-purified secondary antibody (1:1000, Cell Signaling) at room temperature for 1 h, and developed by SuperSignal chemiluminescence (Pierce).

For `O=C(O)CCCCCC(=O)N/N=C/c1ccccc1C(=O)O` [IDE1], the “incorporation of induced endodermal cells into gut tube (in words)” value [1] was “incorporate into gut tube and show expression of gut tube markers”, the “embryos in which induced cells integrated into the gut” value [1] was 8 out of 35 and the EC50 (mouse ES cells) was 125 nM. The “percentage of cells expressing Sox17 after 12 hrs treatment” value (mouse ES cells) was ~40%, the “day of treatment at which endoderm induction peaks” value (mouse ES cells) was 6 days and the “percentage of cells expressing Sox17 at day 2 of treatment” value (mouse ES cells) was 34%. The “percent of total cells expressing Sox17 at day 6 of treatment” value (mouse ES cells) was 80% and 81±14% and the “phosphorylation of Smad2 / activation of the TGF-β pathway” value (Smad2) was “comparable to that induced by Activin A treatment; also recorded: activation of the TGF-β pathway”.
For `O=C(O)CCCCCC(=O)NN=C1CCCC1` [IDE2], the “incorporation of induced endodermal cells into gut tube (in words)” value [1] was “incorporate into gut tube and show expression of gut tube markers”, the “embryos in which induced cells integrated into the gut” value [1] was 7 out of 29 and the EC50 (mouse ES cells) was 223 nM. For the same compound, the “percentage of cells expressing Sox17 after 12 hrs treatment” value (mouse ES cells) was ~40%, the “day of treatment at which endoderm induction peaks” value (mouse ES cells) was 6 days and the “percentage of cells expressing Sox17 at day 2 of treatment” value (mouse ES cells) was 32%. For the same compound, the “percentage of cells expressing Sox17 at day 4 of treatment” value (mouse ES cells; day 4) was 42±3.83%, the “percent of total cells expressing Sox17 at day 6 of treatment” value (mouse ES cells) was 72% and 76±14% and the “phosphorylation of Smad2 / activation of the TGF-β pathway” value (Smad2) was “comparable to that induced by Activin A treatment; also recorded: activation of the TGF-β pathway”.
